Source: ChEMBL document CHEMBL4270550, “Synthesis of pyrazolo[3,4-d]pyrimidin-4(5H)-ones tethered to 1,2,3-triazoles and their evaluation as potential anticancer agents” (2018)

Legend:
C6 [1] = experiment: Antiproliferative activity against rat C6 cells at 10 uM after 48 hrs by MTT assay relative to control; format: functional
U-87 MG [2] = experiment: Antiproliferative activity against human U87 cells at 10 uM after 48 hrs by MTT assay relative to control; format: functional, U-87MG ATCC
U-87 MG [3] = experiment: Cell cycle arrest in human U87 cells assessed as accumulation of cells at G0/G1 phase at 10 uM after 48 hrs by propidium iodide staining-based flow cytometric analysis (reference value: 71.7%); format: functional, U-87MG ATCC
U-87 MG [4] = experiment: Cell cycle arrest in human U87 cells assessed as accumulation of cells at G2/M phase at 10 uM after 48 hrs by propidium iodide staining-based flow cytometric analysis (reference value: 19.4%); format: functional, U-87MG ATCC
U-87 MG [5] = experiment: Cell cycle arrest in human U87 cells assessed as accumulation of cells at S phase at 10 uM after 48 hrs by propidium iodide staining-based flow cytometric analysis (reference value: 8.95%); format: functional, U-87MG ATCC
U-87 MG [6] = experiment: Cell cycle arrest in human U87 cells assessed as accumulation of cells at G0/G1 phase at 25 uM after 48 hrs by propidium iodide staining-based flow cytometric analysis (reference value: 71.7%); format: functional, U-87MG ATCC
U-87 MG [7] = experiment: Cell cycle arrest in human U87 cells assessed as accumulation of cells at G2/M phase at 25 uM after 48 hrs by propidium iodide staining-based flow cytometric analysis (reference value: 19.4%); format: functional, U-87MG ATCC
U-87 MG [8] = experiment: Cell cycle arrest in human U87 cells assessed as accumulation of cells at S phase at 25 uM after 48 hrs by propidium iodide staining-based flow cytometric analysis (reference value: 8.95%); format: functional, U-87MG ATCC
U-87 MG [9] = experiment: Cell cycle arrest in human U87 cells assessed as accumulation of cells at G0/G1 phase at 50 uM after 48 hrs by propidium iodide staining-based flow cytometric analysis (reference value: 71.7%); format: functional, U-87MG ATCC
U-87 MG [10] = experiment: Cell cycle arrest in human U87 cells assessed as accumulation of cells at G2/M phase at 50 uM after 48 hrs by propidium iodide staining-based flow cytometric analysis (reference value: 19.4%); format: functional, U-87MG ATCC
U-87 MG [11] = experiment: Cell cycle arrest in human U87 cells assessed as accumulation of cells at S phase at 50 uM after 48 hrs by propidium iodide staining-based flow cytometric analysis (reference value: 8.95%); format: functional, U-87MG ATCC
C6 [12] = experiment: Antiproliferative activity against rat C6 cells after 48 hrs by MTT assay; format: functional, cell-based
U-87 MG [13] = experiment: Antiproliferative activity against human U87 cells after 48 hrs by MTT assay; format: functional, cell-based; details: U-87MG ATCC
U-87 MG [14] = experiment: Induction of apoptosis in human U87 cells after 48 hrs by propidium iodide staining-based flow cytometric analysis; format: functional, cell-based; details: U-87MG ATCC
U-87 MG [15] = experiment: Induction of apoptosis in human U87 cells assessed as increase in caspase3 expression by Western blot analysis; format: functional, cell-based; details: U-87MG ATCC
U-87 MG [16] = experiment: Induction of apoptosis in human U87 cells assessed as increase in cleaved PARP levels by Western blot analysis; format: functional, cell-based; details: U-87MG ATCC
U-87 MG [17] = experiment: Induction of apoptosis in human U87 cells assessed as increase in p53 levels by Western blot analysis; format: functional, cell-based; details: U-87MG ATCC

Row | Structure (SMILES) | Activity (C6 [1]) [%] | Activity (U-87 MG [2]) [%] | further results
1 | O=c1c2cnn(-c3ccccc3)c2ncn1Cc1cn(-c2ccccc2)nn1 | 34.1 | 52.34 | 
2 | Cc1ccccc1-n1cc(Cn2cnc3c(cnn3-c3ccccc3)c2=O)nn1 | 13.64 | 21.32 | 
3 | Cc1cccc(-n2cc(Cn3cnc4c(cnn4-c4ccccc4)c3=O)nn2)c1C |  | 40.6 | 
4 | Cc1ccc(-n2cc(Cn3cnc4c(cnn4-c4ccccc4)c3=O)nn2)cc1 | 16.87 | 41.62 | 
5 | O=c1c2cnn(-c3ccc(Cl)cc3)c2ncn1Cc1cn(-c2cccc(Cl)c2)nn1 | 9.55 | 47.29 | 
6 | O=c1c2cnn(-c3ccc(Cl)cc3)c2ncn1Cc1cn(-c2ccccc2F)nn1 |  | 21.31 | 
7 | Cc1cccc(-n2cc(Cn3cnc4c(cnn4-c4ccc(Cl)cc4)c3=O)nn2)c1C | 35.91 | 54.42 | 
8 | O=c1c2cnn(-c3ccccc3)c2ncn1Cc1cn(-c2cccc(Cl)c2)nn1 | 17.87 | 47.69 | Activity (U-87 MG [3]): 73.3%; Activity (U-87 MG [4]): 12.52%; Activity (U-87 MG [5]): 14.18%; Activity (U-87 MG [6]): 80.8%; Activity (U-87 MG [7]): 2.03%; Activity (U-87 MG [8]): 17.13%; Activity (U-87 MG [9]): 62.6%; Activity (U-87 MG [10]): 0.08%; Activity (U-87 MG [11]): 37.4%; Activity (C6 [12]): Dose-dependent effect; Activity (U-87 MG [13]): Dose-dependent effect; Activity (U-87 MG [14]): Dose-dependent effect; Activity (U-87 MG [15]): Dose-dependent effect; Activity (U-87 MG [16]): Dose-dependent effect; Activity (U-87 MG [17]): Dose-dependent effect
9 | COc1ccccc1-n1cc(Cn2cnc3c(cnn3-c3ccccc3)c2=O)nn1 | 4.91 | 15.7 | 
10 | O=c1c2cnn(-c3ccc(Cl)cc3)c2ncn1Cc1cn(-c2ccccc2)nn1 |  | 40.98 | 
11 | COc1ccccc1-n1cc(Cn2cnc3c(cnn3-c3ccc(Cl)cc3)c2=O)nn1 | 16.37 | 32.98 | 
12 | O=c1c2cnn(-c3ccccc3)c2ncn1Cc1cn(-c2ccccc2F)nn1 |  | 46.35 | 
